# According to paper PMC3639963, “A New Class of Small Molecule Inhibitor of BMP Signaling” (PLoS ONE, 2013):
# Experiments:
# Test in all cases: Nanosyn kinase profiling
# Assay type in all cases: biochemical
# Settings in all cases: read-out: Percentage inhibition; for inhibition at 0.1 µM: 0.1 µM inhibitor; for inhibition at 1 µM: 1 µM inhibitor
# FGFR1 = biological target: T1, FGFR1 (Homo sapiens, UniProt P11362)
# T1 construct: purchased Nanosyn (enzymatic panel); SGC in-house recombinant human kinases (DSF panel); Invitrogen (ALK1-6)
# How it was run: (§1)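 Percent inhibition of each kinase was measured with the inhibitor at 0.1 µM and at 1 µM, as part of a 200-kinase human selectivity panel.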
# PAK3 = biological target: T2, PAK3 (Homo sapiens, UniProt O75914)
# T2 construct: purchased Nanosyn (enzymatic panel); SGC in-house recombinant human kinases (DSF panel); Invitrogen (ALK1-6)
# How it was run: as §1
# MUSK = biological target: T3, MUSK (Homo sapiens, UniProt O15146)
# T3 construct: purchased Nanosyn (enzymatic panel); SGC in-house recombinant human kinases (DSF panel); Invitrogen (ALK1-6)
# T3 sequence (O15146 24-869): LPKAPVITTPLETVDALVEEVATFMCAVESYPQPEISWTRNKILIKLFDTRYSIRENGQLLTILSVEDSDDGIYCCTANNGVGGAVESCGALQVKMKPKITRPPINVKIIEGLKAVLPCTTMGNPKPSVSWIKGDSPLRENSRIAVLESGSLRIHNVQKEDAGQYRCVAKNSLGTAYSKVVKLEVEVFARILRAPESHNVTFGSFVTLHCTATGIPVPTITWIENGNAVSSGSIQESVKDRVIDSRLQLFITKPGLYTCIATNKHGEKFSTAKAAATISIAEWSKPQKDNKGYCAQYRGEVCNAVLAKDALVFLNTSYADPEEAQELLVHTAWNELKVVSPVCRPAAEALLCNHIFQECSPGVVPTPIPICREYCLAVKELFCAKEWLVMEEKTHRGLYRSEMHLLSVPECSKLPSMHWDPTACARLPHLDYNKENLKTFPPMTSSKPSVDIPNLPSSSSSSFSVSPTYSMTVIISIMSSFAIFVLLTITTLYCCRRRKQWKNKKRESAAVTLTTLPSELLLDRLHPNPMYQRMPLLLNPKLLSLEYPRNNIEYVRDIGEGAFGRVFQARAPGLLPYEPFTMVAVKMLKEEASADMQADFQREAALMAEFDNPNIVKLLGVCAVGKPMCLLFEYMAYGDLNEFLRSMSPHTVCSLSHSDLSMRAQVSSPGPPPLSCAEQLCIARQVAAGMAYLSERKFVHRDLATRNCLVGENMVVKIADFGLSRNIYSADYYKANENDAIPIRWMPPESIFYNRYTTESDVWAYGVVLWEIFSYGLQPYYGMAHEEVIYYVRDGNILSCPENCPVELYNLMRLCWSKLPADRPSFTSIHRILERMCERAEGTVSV
# How it was run: as §1
# EPHB3 = biological target: T4, EPHB3 (Homo sapiens, UniProt P54753)
# T4 construct: purchased Nanosyn (enzymatic panel); SGC in-house recombinant human kinases (DSF panel); Invitrogen (ALK1-6)
# T4 sequence (P54753 34-998): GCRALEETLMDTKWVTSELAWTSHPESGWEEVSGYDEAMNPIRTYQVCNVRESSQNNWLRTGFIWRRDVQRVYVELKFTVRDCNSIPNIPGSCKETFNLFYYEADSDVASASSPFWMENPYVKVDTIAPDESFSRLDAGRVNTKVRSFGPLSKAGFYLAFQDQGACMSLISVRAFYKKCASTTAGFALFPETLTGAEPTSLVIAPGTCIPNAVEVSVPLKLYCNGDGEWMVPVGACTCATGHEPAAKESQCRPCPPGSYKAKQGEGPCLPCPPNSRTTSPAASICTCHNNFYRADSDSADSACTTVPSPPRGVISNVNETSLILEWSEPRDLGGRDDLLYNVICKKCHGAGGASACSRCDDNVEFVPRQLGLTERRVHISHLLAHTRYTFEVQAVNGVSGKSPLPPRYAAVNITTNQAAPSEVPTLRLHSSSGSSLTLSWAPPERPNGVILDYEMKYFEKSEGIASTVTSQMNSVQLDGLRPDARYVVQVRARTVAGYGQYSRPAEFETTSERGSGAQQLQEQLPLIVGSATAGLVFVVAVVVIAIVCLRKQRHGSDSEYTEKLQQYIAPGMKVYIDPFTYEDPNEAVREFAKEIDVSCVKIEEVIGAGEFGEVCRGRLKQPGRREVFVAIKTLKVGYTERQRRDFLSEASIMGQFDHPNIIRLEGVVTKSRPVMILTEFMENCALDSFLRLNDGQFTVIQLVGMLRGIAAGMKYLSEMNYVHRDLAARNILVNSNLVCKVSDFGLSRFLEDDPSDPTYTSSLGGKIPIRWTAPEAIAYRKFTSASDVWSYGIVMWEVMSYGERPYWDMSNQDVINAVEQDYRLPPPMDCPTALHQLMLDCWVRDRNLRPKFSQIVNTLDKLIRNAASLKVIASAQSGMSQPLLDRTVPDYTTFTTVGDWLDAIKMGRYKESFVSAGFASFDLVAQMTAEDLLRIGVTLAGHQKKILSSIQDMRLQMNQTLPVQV
# How it was run: as §1
# PAR1Bα = biological target: T5, PAR1Bα (Homo sapiens, UniProt Q7KZI7)
# T5 construct: purchased Nanosyn (enzymatic panel); SGC in-house recombinant human kinases (DSF panel); Invitrogen (ALK1-6)
# How it was run: as §1
# IRAK4 = biological target: T6, IRAK4 (Homo sapiens, UniProt Q9NWZ3)
# T6 construct: purchased Nanosyn (enzymatic panel); SGC in-house recombinant human kinases (DSF panel); Invitrogen (ALK1-6)
# T6 sequence (Q9NWZ3 1-460): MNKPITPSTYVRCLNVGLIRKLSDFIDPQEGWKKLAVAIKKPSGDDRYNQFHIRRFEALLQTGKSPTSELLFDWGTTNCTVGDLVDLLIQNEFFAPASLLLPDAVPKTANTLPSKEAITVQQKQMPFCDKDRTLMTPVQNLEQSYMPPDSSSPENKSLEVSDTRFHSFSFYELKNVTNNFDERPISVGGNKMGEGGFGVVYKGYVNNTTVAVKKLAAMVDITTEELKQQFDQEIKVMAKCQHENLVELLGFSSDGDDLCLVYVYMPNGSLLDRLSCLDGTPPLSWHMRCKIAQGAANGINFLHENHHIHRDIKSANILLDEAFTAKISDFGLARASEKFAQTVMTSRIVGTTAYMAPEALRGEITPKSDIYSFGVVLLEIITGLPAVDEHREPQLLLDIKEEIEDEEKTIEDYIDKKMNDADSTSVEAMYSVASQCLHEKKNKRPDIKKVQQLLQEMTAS
# How it was run: as §1
# T2 sequence (O75914 whole entry): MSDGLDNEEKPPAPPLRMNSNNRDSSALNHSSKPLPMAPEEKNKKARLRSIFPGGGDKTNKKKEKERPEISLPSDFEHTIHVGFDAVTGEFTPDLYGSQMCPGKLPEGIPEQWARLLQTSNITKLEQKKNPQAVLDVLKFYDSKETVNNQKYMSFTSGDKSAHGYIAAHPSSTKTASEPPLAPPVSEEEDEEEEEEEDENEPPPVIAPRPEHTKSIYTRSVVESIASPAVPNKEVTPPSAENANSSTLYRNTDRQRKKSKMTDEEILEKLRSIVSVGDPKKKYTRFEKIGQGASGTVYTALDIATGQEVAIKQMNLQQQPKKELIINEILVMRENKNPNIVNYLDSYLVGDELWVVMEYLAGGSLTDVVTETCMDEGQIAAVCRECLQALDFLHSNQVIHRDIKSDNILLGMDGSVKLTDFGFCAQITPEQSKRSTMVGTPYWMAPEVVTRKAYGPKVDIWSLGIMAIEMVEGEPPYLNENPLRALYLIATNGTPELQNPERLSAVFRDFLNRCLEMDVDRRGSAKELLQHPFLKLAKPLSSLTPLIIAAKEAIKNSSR
# T1 sequence (P11362 22-822): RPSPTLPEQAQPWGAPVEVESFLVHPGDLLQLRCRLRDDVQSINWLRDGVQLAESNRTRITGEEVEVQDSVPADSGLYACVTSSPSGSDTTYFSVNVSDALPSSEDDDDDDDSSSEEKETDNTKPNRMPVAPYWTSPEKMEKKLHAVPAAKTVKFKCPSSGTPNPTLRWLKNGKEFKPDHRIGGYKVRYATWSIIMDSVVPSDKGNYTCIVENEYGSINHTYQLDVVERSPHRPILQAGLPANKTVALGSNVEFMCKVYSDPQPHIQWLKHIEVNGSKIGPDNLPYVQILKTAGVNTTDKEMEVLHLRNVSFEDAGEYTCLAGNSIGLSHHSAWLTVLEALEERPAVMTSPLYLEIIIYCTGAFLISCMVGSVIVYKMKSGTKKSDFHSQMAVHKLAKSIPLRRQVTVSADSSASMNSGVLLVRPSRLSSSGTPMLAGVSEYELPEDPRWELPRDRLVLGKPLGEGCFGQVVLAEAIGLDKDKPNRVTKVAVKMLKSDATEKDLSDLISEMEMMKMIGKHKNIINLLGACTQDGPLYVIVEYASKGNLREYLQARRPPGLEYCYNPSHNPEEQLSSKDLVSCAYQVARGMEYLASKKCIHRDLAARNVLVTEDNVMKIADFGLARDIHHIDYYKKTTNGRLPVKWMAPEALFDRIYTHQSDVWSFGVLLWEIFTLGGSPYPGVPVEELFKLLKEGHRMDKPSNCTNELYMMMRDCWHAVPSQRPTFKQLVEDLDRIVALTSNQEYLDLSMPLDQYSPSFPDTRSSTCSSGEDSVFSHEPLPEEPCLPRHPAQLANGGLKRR
# T5 sequence (Q7KZI7 1-725 isoform Q7KZI7-4): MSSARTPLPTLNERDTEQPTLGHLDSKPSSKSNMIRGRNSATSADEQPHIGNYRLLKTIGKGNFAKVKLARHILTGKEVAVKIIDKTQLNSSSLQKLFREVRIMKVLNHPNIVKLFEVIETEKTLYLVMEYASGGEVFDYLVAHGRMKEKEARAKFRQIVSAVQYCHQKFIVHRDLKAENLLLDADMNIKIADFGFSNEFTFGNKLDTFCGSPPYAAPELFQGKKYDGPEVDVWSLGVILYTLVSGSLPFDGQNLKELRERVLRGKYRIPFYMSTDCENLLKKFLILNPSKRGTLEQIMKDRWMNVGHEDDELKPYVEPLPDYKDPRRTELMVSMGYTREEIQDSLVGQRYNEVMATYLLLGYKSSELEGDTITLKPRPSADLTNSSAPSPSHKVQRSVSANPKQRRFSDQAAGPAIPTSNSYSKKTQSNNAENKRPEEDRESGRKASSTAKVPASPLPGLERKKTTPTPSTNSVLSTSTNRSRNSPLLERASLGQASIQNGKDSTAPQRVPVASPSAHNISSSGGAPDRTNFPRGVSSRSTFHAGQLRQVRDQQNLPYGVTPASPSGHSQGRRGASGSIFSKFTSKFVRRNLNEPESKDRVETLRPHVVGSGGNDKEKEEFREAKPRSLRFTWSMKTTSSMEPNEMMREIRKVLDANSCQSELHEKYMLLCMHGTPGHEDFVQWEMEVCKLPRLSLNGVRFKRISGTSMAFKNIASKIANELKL
Compound,inhibition at 0.1 µM (FGFR1) [%],inhibition at 1 µM (FGFR1) [%],inhibition at 0.1 µM (PAK3) [%],inhibition at 1 µM (PAK3) [%],inhibition at 0.1 µM (MUSK) [%],inhibition at 1 µM (MUSK) [%],inhibition at 0.1 µM (EPHB3) [%],inhibition at 1 µM (EPHB3) [%],inhibition at 0.1 µM (PAR1Bα) [%],inhibition at 1 µM (PAR1Bα) [%],inhibition at 0.1 µM (IRAK4) [%],inhibition at 1 µM (IRAK4) [%]
"COc1cc(-c2cc(-c3cccc(O)c3)cnc2N)cc(OC)c1OC [K02288, 3-[6-amino-5-(3,4,5-trimethoxy-phenyl)-pyridin-3-yl]-phenol]",-1,-3,-3,-2,1.2,-1,-2,-1,2.3,7,-1,0.3
c1ccc2c(-c3cnn4cc(-c5ccc(N6CCNCC6)cc5)cnc34)ccnc2c1 [LDN-193189],3.4,19,2.9,1.8,5.8,26,5.6,4.3,6.9,43,0.7,1.9
